Measured values published in publication PMC9184463, “Structural basis of ligand binding modes of human EAAT2” (Nature Communications, 2022).
Where “and” joins values, the source holds several entries; their conditions need not be identical. Equal values may be shown once.

Tests used:
[1] = system: ionotropic and metabotropic glutamate receptors; settings: sentence of earlier manuscript version quoted by reviewer; no reference given; cited from earlier work
wild-type hEAAT2 = target: T1, wild-type hEAAT2 (Homo sapiens, UniProt P43004); assay: whole-cell patch-clamp of hEAAT2-associated anion current, wild-type hEAAT2 in HEK293T cells; type: cell-based; settings: for WAY-213613-inhibited current, normalized (MEAN): WT
T1 construct: Strep Tag II (N); superfolder GFP (sfGFP) (N); expressed in transfected cells; host or cells: HEK293T
Description: (§1) Human embryonic kidney 293T (HEK293T) cells were cultured in Dulbecco’s Modified Eagle Medium (DMEM, Gibco) media supplemented with 15% (v/v) fetal bovine serum (FBS, PAN-Biotech) at 37 °C with 5% CO2. HEK293T cells were grown in the culture dishes (d = 3.5 cm) (Thermo Fisher Scientific) for 24 h and then 1 μg hEAAT2 wild-type and mutant plasmids for per dishes were used to transiently transfect HEK293T using 0.7 μg Lipofectamine 2000 Reagent (Thermo Fisher Scientific). Cells were analyzed using electrophysiological experiments between 24 and 40 h after transfection at room temperature (21–25 °C).
(§2) Electrophysiological experiments were performed as described previously with a minor modification. External buffer contained 140 mM NaCl, 2 mM MgCl2, 2 mM CaCl2, and 10 mM HEPES (pH = 7.4 with NaOH and osmolarity of ∼310 mosmol L^−1) and while internal pipette solution comprised of 130 mM NaSCN, 2 mM MgCl2, 10 mM EGTA, 10 mM HEPES (pH = 7.4 with NaOH and osmolarity of ∼310 mosmol L^−1) and 10 mM glutamate. 50 mM WAY-213613 stock solutions were prepared in dimethyl sulfoxide (DMSO), followed by dilutions to working concentrations with the above-mentioned external buffer. […] Whole cell patch-clamp experiment recordings were made from isolated GFP-positive HEK293T cells (hEAAT2 wild type and mutants). In all, 3–6 MΩ was used to fire a polished pipette (Sutter Instrument). […] Cells were immersed in the above-mentioned external buffer supplemented with a specified concentration of glutamate or WAY-213613. Glutamate-induced anion current, Na^+-dependent anion leak current and glutamate transport current or WAY-213613 inhibited anion leak currents were recorded using an EPC-10 amplifier (HEKA Electronic) at a 20 kHz sample rate with low pass filter at 5 kHz. All experiments were executed at 0 mV. After the cell current was stabilized, glutamate or WAY-213613 was sustained at the indicated concentrations from external dosing for at least 6 s. Subsequently, the cell was washed away with external buffer to start a new round of applications or end the experiment. The plateau currents were used for the following calculations. For analysis, the data was acquired by PatchMaster program (HEKA Electronic) at 5 s after recording. Nonlinear dose–response relationships were fitted into a Michaelis–Menten-like equation shown as below to obtain the apparent Km and Ki values in the presence of glutamate or WAY-213613.1 I/Imax=Km/i/C+Km/i In this equation, I represent the current at different glutamate or inhibitor concentrations, and Imax represents the maximal current at the saturating concentration of glutamate or inhibitor. [C] represents the concentration of glutamate or inhibitor. Km/i represents the apparent constant.

hEAAT2 mutant S441G = target: T2, hEAAT2 mutant S441G (Homo sapiens, UniProt P43004, S441G); assay: whole-cell patch-clamp, hEAAT2 mutant S441G in HEK293T cells; type: cell-based; settings: 0 mV; for WAY-213613-inhibited current, normalized (MEAN): S441G
T2 construct: Strep Tag II (N); superfolder GFP (sfGFP) (N); expressed in transfected cells; host or cells: HEK293T
Description: as §1, §2

hEAAT2 mutant L467I = target: T3, hEAAT2 mutant L467I (Homo sapiens, UniProt P43004, L467I); assay: whole-cell patch-clamp, hEAAT2 mutant L467I in HEK293T cells; type: cell-based; settings: 0 mV; for WAY-213613-inhibited current, normalized (MEAN): L467I
T3 construct: Strep Tag II (N); superfolder GFP (sfGFP) (N); expressed in transfected cells; host or cells: HEK293T
Description: as §1, §2

hEAAT2 mutant R478A = target: T4, hEAAT2 mutant R478A (Homo sapiens, UniProt P43004, R478A); assay: whole-cell patch-clamp, hEAAT2 mutant R478A in HEK293T cells; type: cell-based; settings: 0 mV; for WAY-213613-inhibited current, normalized (MEAN): R478A
T4 construct: Strep Tag II (N); superfolder GFP (sfGFP) (N); expressed in transfected cells; host or cells: HEK293T
Description: as §1, §2

hEAAT2 = settings: cited from earlier work
hEAAT1 = settings: cited from earlier work
hEAAT3 = settings: cited from earlier work
hEAAT2 mutant V468I = target: T5, hEAAT2 mutant V468I (Homo sapiens, UniProt P43004, V468I); assay: whole-cell patch-clamp, hEAAT2 mutant V468I in HEK293T cells; type: cell-based; settings: 0 mV; for WAY-213613-inhibited current, normalized (MEAN): V468I
T5 construct: Strep Tag II (N); superfolder GFP (sfGFP) (N); expressed in transfected cells; host or cells: HEK293T
Description: as §1, §2

hEAAT2 mutant I464V = target: T6, hEAAT2 mutant I464V (Homo sapiens, UniProt P43004, I464V); assay: whole-cell patch-clamp, hEAAT2 mutant I464V in HEK293T cells; type: cell-based; settings: 0 mV; for WAY-213613-inhibited current, normalized (MEAN): I464V
T6 construct: Strep Tag II (N); superfolder GFP (sfGFP) (N); expressed in transfected cells; host or cells: HEK293T
Description: as §1, §2

[2] = 0.03 μM WAY-213613, normalized to current at 30 μM
[3] = 0.1 μM WAY-213613, normalized to current at 30 μM
[4] = 0.3 μM WAY-213613, normalized to current at 30 μM
[5] = 1 μM WAY-213613, normalized to current at 30 μM
[6] = 3 μM WAY-213613, normalized to current at 30 μM
[7] = 10 μM WAY-213613, normalized to current at 30 μM
[8] = 30 μM WAY-213613, normalization reference

T2 sequence (P43004 whole entry S441G): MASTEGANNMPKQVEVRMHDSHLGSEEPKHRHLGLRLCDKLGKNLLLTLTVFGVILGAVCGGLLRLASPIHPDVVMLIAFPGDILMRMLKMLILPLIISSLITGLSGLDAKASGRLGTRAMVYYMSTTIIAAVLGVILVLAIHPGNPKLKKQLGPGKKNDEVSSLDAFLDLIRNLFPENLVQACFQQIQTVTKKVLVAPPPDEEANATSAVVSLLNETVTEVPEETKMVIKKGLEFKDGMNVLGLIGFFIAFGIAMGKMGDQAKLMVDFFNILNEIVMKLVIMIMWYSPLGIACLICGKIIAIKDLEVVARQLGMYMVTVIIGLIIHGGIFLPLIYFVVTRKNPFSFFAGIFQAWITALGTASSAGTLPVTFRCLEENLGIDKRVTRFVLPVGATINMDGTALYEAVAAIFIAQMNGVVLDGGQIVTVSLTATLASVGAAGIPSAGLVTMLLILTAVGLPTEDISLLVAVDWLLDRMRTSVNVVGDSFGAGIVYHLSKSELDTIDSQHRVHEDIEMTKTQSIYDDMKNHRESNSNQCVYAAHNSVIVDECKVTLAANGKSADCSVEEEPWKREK
T4 sequence (P43004 whole entry R478A): as the sequence (P43004 whole entry S441G) above, with G441S, R478A counted along it
T5 sequence (P43004 whole entry V468I): as the sequence (P43004 whole entry S441G) above, with G441S, V468I counted along it
T1 sequence (P43004 whole entry, the tested form may be a part): as the sequence (P43004 whole entry S441G) above, with G441S counted along it
T6 sequence (P43004 whole entry I464V): as the sequence (P43004 whole entry S441G) above, with G441S, I464V counted along it
T3 sequence (P43004 whole entry L467I): as the sequence (P43004 whole entry S441G) above, with G441S, L467I counted along it

## NC(CC(=O)Nc1ccc(Oc2cc(F)c(F)cc2Br)cc1)C(=O)O (stereo not drawn) [WAY-213613]
[1]
  effect on ionotropic and metabotropic glutamate receptors: no effect
wild-type hEAAT2; 0.01 μM WAY-213613, 0 mV, normalized to current at 30 μM WAY-213613
  WAY-213613-inhibited current, normalized (MEAN): 0.1531
wild-type hEAAT2; 0.03 μM WAY-213613, 0 mV, normalized to current at 30 μM WAY-213613
  WAY-213613-inhibited current, normalized (MEAN): 0.3093
wild-type hEAAT2; 0.1 μM WAY-213613, 0 mV, normalized to current at 30 μM WAY-213613
  WAY-213613-inhibited current, normalized (MEAN): 0.5406
wild-type hEAAT2; 0.3 μM WAY-213613, 0 mV, normalized to current at 30 μM WAY-213613
  WAY-213613-inhibited current, normalized (MEAN): 0.7864
wild-type hEAAT2; 1 μM WAY-213613, 0 mV, normalized to current at 30 μM WAY-213613
  WAY-213613-inhibited current, normalized (MEAN): 0.9254
wild-type hEAAT2; 3 μM WAY-213613, 0 mV, normalized to current at 30 μM WAY-213613
  WAY-213613-inhibited current, normalized (MEAN): 0.9686
wild-type hEAAT2; 30 μM WAY-213613, 0 mV, normalization reference
  WAY-213613-inhibited current, normalized (MEAN): 1
wild-type hEAAT2; wild-type hEAAT2
  effect of inhibitor on anion leak conductance: block the anion leak conductance
wild-type hEAAT2; wild-type hEAAT2, HEK293T, 0 mV, Michaelis-Menten-like fit, read-out: apparent Ki (inhibition of anion leak current)
  Ki: 70 ± 30 nM
hEAAT2 mutant S441G; [2]
  WAY-213613-inhibited current, normalized (MEAN): 0.08476
hEAAT2 mutant S441G; [3]
  WAY-213613-inhibited current, normalized (MEAN): 0.2697
hEAAT2 mutant S441G; [4]
  WAY-213613-inhibited current, normalized (MEAN): 0.5414
hEAAT2 mutant S441G; [5]
  WAY-213613-inhibited current, normalized (MEAN): 0.7785
hEAAT2 mutant S441G; [6]
  WAY-213613-inhibited current, normalized (MEAN): 0.8947
hEAAT2 mutant S441G; [7]
  WAY-213613-inhibited current, normalized (MEAN): 0.9736
hEAAT2 mutant S441G; [8]
  WAY-213613-inhibited current, normalized (MEAN): 1
hEAAT2 mutant S441G; S441G mutant, read-out: apparent Ki
  Ki: 260 nM
hEAAT2 mutant L467I; [2]
  WAY-213613-inhibited current, normalized (MEAN): 0.06992
hEAAT2 mutant L467I; [3]
  WAY-213613-inhibited current, normalized (MEAN): 0.1548
hEAAT2 mutant L467I; [4]
  WAY-213613-inhibited current, normalized (MEAN): 0.4253
hEAAT2 mutant L467I; [5]
  WAY-213613-inhibited current, normalized (MEAN): 0.7036
hEAAT2 mutant L467I; [6]
  WAY-213613-inhibited current, normalized (MEAN): 0.8764
hEAAT2 mutant L467I; [7]
  WAY-213613-inhibited current, normalized (MEAN): 1.001
hEAAT2 mutant L467I; [8]
  WAY-213613-inhibited current, normalized (MEAN): 1
hEAAT2 mutant L467I; L467I mutant, read-out: apparent Ki
  Ki: ~460 nM and 464 nM
hEAAT2 mutant R478A; 0.3 μM WAY-213613, normalized to current at 100 μM
  WAY-213613-inhibited current, normalized (MEAN): 0.173
hEAAT2 mutant R478A; 1 μM WAY-213613, normalized to current at 100 μM
  WAY-213613-inhibited current, normalized (MEAN): 0.3915
hEAAT2 mutant R478A; 3 μM WAY-213613, normalized to current at 100 μM
  WAY-213613-inhibited current, normalized (MEAN): 0.5586
hEAAT2 mutant R478A; 10 μM WAY-213613, normalized to current at 100 μM
  WAY-213613-inhibited current, normalized (MEAN): 0.7927
hEAAT2 mutant R478A; 30 μM WAY-213613, normalized to current at 100 μM
  WAY-213613-inhibited current, normalized (MEAN): 0.9136
hEAAT2 mutant R478A; 100 μM WAY-213613, normalization reference
  WAY-213613-inhibited current, normalized (MEAN): 1
hEAAT2 mutant R478A; R478A mutant, read-out: apparent Ki
  Ki: 1680 nM
hEAAT2
  IC50: 85 nM
hEAAT1; hEAAT1
  IC50: 5 µM
hEAAT1; hEAAT2 over hEAAT1
  selectivity (affinity) for hEAAT2 over hEAAT1: 59 fold
hEAAT3; hEAAT2 over hEAAT3
  selectivity (affinity) for hEAAT2 over hEAAT3: 44 fold
hEAAT3; hEAAT3
  IC50: 3.8 µM
hEAAT2 mutant V468I; [2]
  WAY-213613-inhibited current, normalized (MEAN): 0.136
hEAAT2 mutant V468I; [3]
  WAY-213613-inhibited current, normalized (MEAN): 0.3481
hEAAT2 mutant V468I; [4]
  WAY-213613-inhibited current, normalized (MEAN): 0.6012
hEAAT2 mutant V468I; [5]
  WAY-213613-inhibited current, normalized (MEAN): 0.8026
hEAAT2 mutant V468I; [6]
  WAY-213613-inhibited current, normalized (MEAN): 0.923
hEAAT2 mutant V468I; [7]
  WAY-213613-inhibited current, normalized (MEAN): 0.993
hEAAT2 mutant V468I; [8]
  WAY-213613-inhibited current, normalized (MEAN): 1
hEAAT2 mutant V468I; V468I mutant, read-out: apparent Ki
  Ki: ~200 nM and 196 nM
hEAAT2 mutant I464V; [2]
  WAY-213613-inhibited current, normalized (MEAN): 0.1438
hEAAT2 mutant I464V; [3]
  WAY-213613-inhibited current, normalized (MEAN): 0.3695
hEAAT2 mutant I464V; [4]
  WAY-213613-inhibited current, normalized (MEAN): 0.6353
hEAAT2 mutant I464V; [5]
  WAY-213613-inhibited current, normalized (MEAN): 0.8468
hEAAT2 mutant I464V; [6]
  WAY-213613-inhibited current, normalized (MEAN): 0.8861
hEAAT2 mutant I464V; [7]
  WAY-213613-inhibited current, normalized (MEAN): 0.98
hEAAT2 mutant I464V; [8]
  WAY-213613-inhibited current, normalized (MEAN): 1
hEAAT2 mutant I464V; I464V mutant, read-out: apparent Ki
  Ki: ~170 nM and 166 nM
